Experimental data from PubChem BioAssay AID1963448 (Molecular Pharmacology Branch, DTP, NCI, 2024).

Test system: 616215-338-R-J1-PDC complex spheroid growth, % test/control
Test: Anticancer human tumor 616215-338-R-J1-PDC patient-derived colon adenocarcinoma cell line growth inhibition [Asc]
Details: for IC50: curve of first compound; for viability, T/C: stronger effect = lower value
Outline: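 Tumor cells were grown as complex spheroids with human endothelial cells (HUVEC) and human mesenchymal stem cells as stroma. Agents were tested alone and in combination, in half-log steps down from the clinical Cmax, or from 10 microM where Cmax was unknown.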
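Further: spheroids exposed to agents for seven days before readout.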
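Wherever viability, T/C is given: 100% = DMSO vehicle control viability.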

Q: What does the source list for `O=C(c1ccc(F)c(F)c1Nc1ccc(I)cc1F)N1CC(O)([C@@H]2CCCCN2)C1` + Cc1c(S(C)(=O)=O)c(-c2cc(F)cc(N3CCN(c4ccc(NS(=O)(=O)c5ccc(NC(CCN6CCC(C(=O)OCCCP(=O)(O)O)CC6)CSc6ccccc6)c(S(=O)(=O)C(F)(F)F)c5)cc4)CC3)c2)c(-c2ccc(Cl)cc2)n1C(C)C?
A: IC50 (second compound 0.1 µM): 64.4 nM; IC50 (second compound 0.316 µM): 58.4 nM; IC50 (second compound 1 µM): 38.3 nM; IC50 (second compound 3.16 µM): < 3.16 nM; IC50 (second compound 10 µM): < 3.16 nM; viability, T/C (second compound 0.1 µM, first compound 0.00316 µM): 92.4%; viability, T/C (second compound 0.1 µM, first compound 0.01 µM): 91.7%; viability, T/C (second compound 0.1 µM, first compound 0.0316 µM): 79.5%; viability, T/C (second compound 0.1 µM, first compound 0.1 µM): 32%; viability, T/C (second compound 0.1 µM, first compound 0.316 µM): 1.51%; viability, T/C (second compound 0.1 µM, first compound 1 µM): 0.8%; viability, T/C (second compound 0.316 µM, first compound 0.00316 µM): 92.8%; viability, T/C (second compound 0.316 µM, first compound 0.01 µM): 91.9%; viability, T/C (second compound 0.316 µM, first compound 0.0316 µM): 79.3%; viability, T/C (second compound 0.316 µM, first compound 0.1 µM): 24.4%; viability, T/C (second compound 0.316 µM, first compound 0.316 µM): 0.48%; viability, T/C (second compound 0.316 µM, first compound 1 µM): 0.95%; viability, T/C (second compound 1 µM, first compound 0.00316 µM): 68%; viability, T/C (second compound 1 µM, first compound 0.01 µM): 70.4%; viability, T/C (second compound 1 µM, first compound 0.0316 µM): 56%; viability, T/C (second compound 1 µM, first compound 0.1 µM): 17.4%; viability, T/C (second compound 1 µM, first compound 0.316 µM): 0.25%; viability, T/C (second compound 1 µM, first compound 1 µM): 2.24%; viability, T/C (second compound 3.16 µM, first compound 0.00316 µM): 39.5%; viability, T/C (second compound 3.16 µM, first compound 0.01 µM): 34.9%; viability, T/C (second compound 3.16 µM, first compound 0.0316 µM): 27.3%; viability, T/C (second compound 3.16 µM, first compound 0.1 µM): 2.89%; viability, T/C (second compound 3.16 µM, first compound 0.316 µM): 0.11%; viability, T/C (second compound 3.16 µM, first compound 1 µM): 0.23%; viability, T/C (second compound 10 µM, first compound 0.00316 µM): 25.1%; viability, T/C (second compound 10 µM, first compound 0.01 µM): 21.5%; viability, T/C (second compound 10 µM, first compound 0.0316 µM): 14.2%; viability, T/C (second compound 10 µM, first compound 0.1 µM): 0.19%; viability, T/C (second compound 10 µM, first compound 0.316 µM): 0.18%; viability, T/C (second compound 10 µM, first compound 1 µM): 0.36%

Q: With `NC(=O)C(=Cn1cnc(-c2cc(C(F)(F)F)cc(C(F)(F)F)c2)n1)c1cncnc1` + Cc1c(S(C)(=O)=O)c(-c2cc(F)cc(N3CCN(c4ccc(NS(=O)(=O)c5ccc(NC(CCN6CCC(C(=O)OCCCP(=O)(O)O)CC6)CSc6ccccc6)c(S(=O)(=O)C(F)(F)F)c5)cc4)CC3)c2)c(-c2ccc(Cl)cc2)n1C(C)C as the compound, how does the IC50 (second compound 0.1 µM) read?
A: > 300 nM

Q: And the IC50 (second compound 0.316 µM)?
A: 143 nM

Q: What about the IC50 (second compound 1 µM) of the same compound?
A: 36.6 nM

Q: What about the IC50 (second compound 3.16 µM) of the same compound?
A: < 0.949 nM

Q: And the IC50 (second compound 10 µM)?
A: < 0.949 nM

Q: And the viability, T/C (second compound 0.1 µM, first compound 0.000949 µM)?
A: 91.7%

Q: And the viability, T/C (second compound 0.1 µM, first compound 0.003 µM)?
A: 91.1%

Q: And the viability, T/C (second compound 0.1 µM, first compound 0.00949 µM)?
A: 87.2%

Q: And the viability, T/C (second compound 0.1 µM, first compound 0.03 µM)?
A: 91.7%

Q: What about the viability, T/C (second compound 0.1 µM, first compound 0.0949 µM) of the same compound?
A: 81%

Q: And the viability, T/C (second compound 0.1 µM, first compound 0.3 µM)?
A: 71.8%

Q: And the viability, T/C (second compound 0.316 µM, first compound 0.000949 µM)?
A: 95.6%

Q: And the viability, T/C (second compound 0.316 µM, first compound 0.003 µM)?
A: 97.5%

Q: And the viability, T/C (second compound 0.316 µM, first compound 0.00949 µM)?
A: 89.3%

Q: And the viability, T/C (second compound 0.316 µM, first compound 0.03 µM)?
A: 78.8%

Q: What about the viability, T/C (second compound 0.316 µM, first compound 0.0949 µM) of the same compound?
A: 64.7%

Q: And the viability, T/C (second compound 0.316 µM, first compound 0.3 µM)?
A: 26.7%

Q: What about the viability, T/C (second compound 1 µM, first compound 0.000949 µM) of the same compound?
A: 67%

Q: What about the viability, T/C (second compound 1 µM, first compound 0.003 µM) of the same compound?
A: 71.3%

Q: And the viability, T/C (second compound 1 µM, first compound 0.00949 µM)?
A: 68.5%

Q: What about the viability, T/C (second compound 1 µM, first compound 0.03 µM) of the same compound?
A: 55.9%

Q: And the viability, T/C (second compound 1 µM, first compound 0.0949 µM)?
A: 20.6%

Q: What about the viability, T/C (second compound 1 µM, first compound 0.3 µM) of the same compound?
A: 1.76%

Q: And the viability, T/C (second compound 3.16 µM, first compound 0.000949 µM)?
A: 41.7%

Q: What about the viability, T/C (second compound 3.16 µM, first compound 0.003 µM) of the same compound?
A: 42.7%

Q: What about the viability, T/C (second compound 3.16 µM, first compound 0.00949 µM) of the same compound?
A: 34.4%

Q: What about the viability, T/C (second compound 3.16 µM, first compound 0.03 µM) of the same compound?
A: 24.3%

Q: And the viability, T/C (second compound 3.16 µM, first compound 0.0949 µM)?
A: 2.24%

Q: What about the viability, T/C (second compound 3.16 µM, first compound 0.3 µM) of the same compound?
A: 0.67%

Q: What about the viability, T/C (second compound 10 µM, first compound 0.000949 µM) of the same compound?
A: 27.9%

Q: What about the viability, T/C (second compound 10 µM, first compound 0.003 µM) of the same compound?
A: 25%

Q: What about the viability, T/C (second compound 10 µM, first compound 0.00949 µM) of the same compound?
A: 19.2%

Q: What about the viability, T/C (second compound 10 µM, first compound 0.03 µM) of the same compound?
A: 6.13%

Q: And the viability, T/C (second compound 10 µM, first compound 0.0949 µM)?
A: 0.4%

Q: What about the viability, T/C (second compound 10 µM, first compound 0.3 µM) of the same compound?
A: 0.25%
